Assay results published in the CheMixHub viscosity set.
± gives the uncertainty stated by the source.

Assay: xn = mol fraction of the nth substance listed

[Cl-].[Cl-].[Cl-].[Cl-].[Ge+4] + CSC
293.15 K, 101 kPa
Conditions | viscosity [mPa·s]
x2 = 0.203 | 0.526 ± 0.013
x2 = 0.3575 | 0.483 ± 0.012
x2 = 0.4983 | 0.433 ± 0.011
x2 = 0.6857 | 0.379 ± 0.01
x2 = 0.8554 | 0.328 ± 0.008

Fc1ccccc1 + CC(=O)OCCC(C)C
viscosity [mPa·s], 101 kPa
Conditions | x2 = 0.0669 | x2 = 0.1372 | x2 = 0.2148 | x2 = 0.2975 | x2 = 0.3897 | x2 = 0.4843 | x2 = 0.5939 | x2 = 0.713 | x2 = 0.8486
303.15 K | 0.541 ± 0.011 | 0.565 ± 0.011 | 0.591 ± 0.011 | 0.613 ± 0.011 | 0.637 ± 0.011 | 0.661 ± 0.011 | 0.682 ± 0.011 | 0.706 ± 0.011 | 0.727 ± 0.011
313.15 K | 0.48 ± 0.011 | 0.501 ± 0.011 | 0.524 ± 0.011 | 0.543 ± 0.011 | 0.561 ± 0.011 | 0.579 ± 0.011 | 0.597 ± 0.011 | 0.613 ± 0.011 | 0.629 ± 0.011

Cc1ccc(C)cc1 + CCCCCO
293.15 K, 101.33 kPa
Conditions | viscosity [mPa·s]
x2 = 0.1458 | 0.727 ± 0.01
x2 = 0.2275 | 0.792 ± 0.011
x2 = 0.2722 | 0.836 ± 0.011
x2 = 0.3455 | 0.925 ± 0.012
x2 = 0.4093 | 1.022 ± 0.013
x2 = 0.4819 | 1.164 ± 0.015
x2 = 0.5534 | 1.356 ± 0.017
x2 = 0.6142 | 1.543 ± 0.019
x2 = 0.7185 | 1.973 ± 0.023
x2 = 0.7687 | 2.232 ± 0.026
x2 = 0.8498 | 2.747 ± 0.032
x2 = 0.9425 | 3.494 ± 0.039

CCCCCCCCCCCCO + CCCCCCO
viscosity [mPa·s], 101.8 kPa
Conditions | x2 = 0.1701 | x2 = 0.4377 | x2 = 0.6449 | x2 = 0.8097 | x2 = 0.9429
298.15 K | 14.45 ± 0.6 | 10.7 ± 0.57 | 8.172 ± 0.52 | 6.334 ± 0.49 | 5.053 ± 0.46
308.15 K | 9.897 ± 0.51 | 7.517 ± 0.44 | 5.841 ± 0.42 | 4.64 ± 0.4 | 3.754 ± 0.38
318.15 K | 6.978 ± 0.41 | 5.411 ± 0.38 | 4.279 ± 0.37 | 3.455 ± 0.36 | 2.829 ± 0.35

O=C([O-])CC(O)(CC(=O)[O-])C(=O)[O-].[Na+].[Na+].[Na+] + O
viscosity [mPa·s]
Conditions | 293.15 K | 298.15 K | 303.15 K
101 kPa, x1 = 0.0013 | – | 0.94 ± 0.008 | –
101 kPa, x1 = 0.0025 | – | 1.033 ± 0.009 | –
101 kPa, x1 = 0.0052 | – | 1.126 ± 0.01 | –
101 kPa, x1 = 0.0067 | – | 1.21 ± 0.01 | –
101 kPa, x1 = 0.0146 | – | 1.805 ± 0.016 | –
101 kPa, x1 = 0.0243 | – | 3.067 ± 0.028 | –
101 kPa, x1 = 0.0364 | – | 5.952 ± 0.056 | –
101 kPa, x1 = 0.0518 | – | 9.7 ± 0.096 | –
101.33 kPa, x1 = 0.002 | 1.087 ± 0.083 | 0.959 ± 0.07 | 0.859 ± 0.064
101.33 kPa, x1 = 0.0054 | 1.327 ± 0.097 | 1.168 ± 0.084 | 1.043 ± 0.074
101.33 kPa, x1 = 0.0093 | 1.67 ± 0.12 | 1.466 ± 0.1 | 1.305 ± 0.091
101.33 kPa, x1 = 0.0126 | 2.033 ± 0.15 | 1.78 ± 0.13 | 1.58 ± 0.11
101.33 kPa, x1 = 0.0165 | 2.569 ± 0.18 | 2.242 ± 0.16 | 1.984 ± 0.14
101.33 kPa, x1 = 0.0196 | 3.097 ± 0.23 | 2.696 ± 0.2 | 2.379 ± 0.17
101.33 kPa, x1 = 0.0232 | 3.855 ± 0.28 | 3.346 ± 0.24 | 2.944 ± 0.21
101.33 kPa, x1 = 0.0269 | 4.836 ± 0.35 | 4.185 ± 0.3 | 3.67 ± 0.26
101.33 kPa, x1 = 0.0297 | 5.748 ± 0.44 | 4.963 ± 0.38 | 4.341 ± 0.33
101.33 kPa, x1 = 0.0335 | 7.277 ± 0.54 | 6.263 ± 0.46 | 5.46 ± 0.39
101.33 kPa, x1 = 0.0366 | 8.834 ± 0.62 | 7.583 ± 0.55 | 6.593 ± 0.45

O=C(O)CCC(=O)O + CO
viscosity [mPa·s], 101 kPa
Conditions | 308.15 K | 313.15 K | 318.15 K | 323.15 K
x1 = 0.04258 | 0.8055 ± 0.021 | 0.7491 ± 0.02 | 0.6981 ± 0.018 | 0.646 ± 0.017
x1 = 0.05573 | 0.9556 ± 0.025 | 0.887 ± 0.024 | 0.8175 ± 0.022 | 0.7603 ± 0.02

C=C(C)C(=O)OCCCCCCC + C1CCCCC1
viscosity [mPa·s], 101 kPa
Conditions | x1 = 0.002 | x1 = 0.005 | x1 = 0.01 | x1 = 0.02
303 K | 0.8392 ± 0.0085 | 0.8401 ± 0.0085 | 0.8252 ± 0.0082 | 0.8456 ± 0.0087
313 K | 0.6991 ± 0.0056 | 0.7083 ± 0.0057 | 0.7012 ± 0.0055 | 0.7219 ± 0.006
323 K | 0.6114 ± 0.004 | 0.6127 ± 0.004 | 0.6159 ± 0.004 | 0.6244 ± 0.0043

CCCC[N+](CCCC)(CCCC)CCCC.[Cl-] + CC(C)C[C@H](N)C(=O)O
Conditions | viscosity [mPa·s]
313.15 K, 100 kPa, x1 = 0.9 | 943 ± 100

Cc1ccc(C)cc1 + C1CCOC1
303.15 K, 101.33 kPa
Conditions | viscosity [mPa·s]
x2 = 0.1057 | 0.564 ± 0.005
x2 = 0.2037 | 0.557 ± 0.005
x2 = 0.2809 | 0.552 ± 0.005
x2 = 0.4052 | 0.544 ± 0.005
x2 = 0.5256 | 0.53 ± 0.005
x2 = 0.6045 | 0.518 ± 0.005
x2 = 0.7062 | 0.501 ± 0.005
x2 = 0.8021 | 0.485 ± 0.005
x2 = 0.9001 | 0.462 ± 0.004

CCCCCCCCCCCCCCCCCC(=O)OC + ClC=C(Cl)Cl
viscosity [mPa·s], 101 kPa
Conditions | x1 = 0.05 | x1 = 0.1 | x1 = 0.15 | x1 = 0.2 | x1 = 0.25 | x1 = 0.3
298 K | 0.77 ± 0.02 | 1.04 ± 0.02 | 1.37 ± 0.03 | 1.73 ± 0.04 | 2.09 ± 0.04 | 2.61 ± 0.05
303 K | 0.74 ± 0.02 | 0.98 ± 0.02 | 1.3 ± 0.03 | 1.6 ± 0.03 | 1.9 ± 0.04 | 2.39 ± 0.05
308 K | 0.71 ± 0.02 | 0.93 ± 0.02 | 1.21 ± 0.03 | 1.5 ± 0.03 | 1.77 ± 0.04 | 2.2 ± 0.05
313 K | 0.68 ± 0.01 | 0.89 ± 0.02 | 1.14 ± 0.02 | 1.4 ± 0.03 | 1.66 ± 0.03 | 2.01 ± 0.04

C[N+](C)(C)CCO.[Cl-] + NCCO
101 kPa
Conditions | viscosity [mPa·s]
293.15 K, x1 = 0.091 | 40.5 ± 1.7
293.15 K, x1 = 0.111 | 48.81 ± 2
293.15 K, x1 = 0.143 | 51.72 ± 2.1
298.15 K, x1 = 0.125 | 38.64 ± 0.44
303.15 K, x1 = 0.125 | 30.08 ± 0.34
308.15 K, x1 = 0.125 | 23.81 ± 0.27
313.15 K, x1 = 0.091 | 16.33 ± 0.68
313.15 K, x1 = 0.111 | 20.81 ± 0.87
313.15 K, x1 = 0.125 | 19.3 ± 0.2
313.15 K, x1 = 0.143 | 21.41 ± 0.89
318.15 K, x1 = 0.125 | 15.79 ± 0.18
323.15 K, x1 = 0.125 | 12.88 ± 0.15

CC(C)CCCC(C)CCCC(C)CCCC(C)C (stereo not given) + CCCCCCCCCCCCCCCC
298.15 K, 101.33 kPa
Conditions | viscosity [mPa·s]
x2 = 0.0966 | 5.129 ± 0.06
x2 = 0.1996 | 4.843 ± 0.056
x2 = 0.2995 | 4.565 ± 0.051
x2 = 0.3995 | 4.303 ± 0.046
x2 = 0.4994 | 4.063 ± 0.042
x2 = 0.5995 | 3.839 ± 0.039
x2 = 0.6995 | 3.631 ± 0.036
x2 = 0.8001 | 3.438 ± 0.032
x2 = 0.85 | 3.332 ± 0.031

c1ccc(Nc2ccccc2)cc1 + Oc1ccccc1
viscosity [mPa·s], 101 kPa
Conditions | 303.15 K | 313.15 K | 323.1 K
x1 = 0.21 | – | – | 3.825 ± 0.077
x1 = 0.444 | – | – | 4.362 ± 0.088
x1 = 0.683 | – | – | 5.01 ± 0.1
x2 = 0.133 | 12.57 ± 0.13 | 7.95 ± 0.08 | –
x2 = 0.2435 | 11.65 ± 0.12 | 7.43 ± 0.08 | –
x2 = 0.3531 | 10.72 ± 0.11 | 6.93 ± 0.07 | –
x2 = 0.4454 | 10.03 ± 0.11 | 6.52 ± 0.07 | –
x2 = 0.5306 | 9.47 ± 0.1 | 6.2 ± 0.06 | –
x2 = 0.6104 | 8.98 ± 0.09 | 5.91 ± 0.06 | –
x2 = 0.6735 | 8.61 ± 0.09 | 5.68 ± 0.06 | –
x2 = 0.7266 | 8.28 ± 0.09 | 5.51 ± 0.06 | –
x2 = 0.7989 | 7.91 ± 0.08 | 5.28 ± 0.06 | –
x2 = 0.8548 | 7.65 ± 0.08 | 5.13 ± 0.05 | –
x2 = 0.908 | 7.42 ± 0.08 | 4.98 ± 0.05 | –
x2 = 0.9541 | 7.255 ± 0.076 | 4.845 ± 0.05 | –

CC(C)CCCC(C)CCCC(C)CCCCC(C)CCCC(C)CCCC(C)C (stereo not given) + CC(C)CO
101 kPa
Conditions | viscosity [mPa·s]
298.15 K, x2 = 0.1032 | 22.85 ± 0.11
308.15 K, x2 = 0.1672 | 13.45 ± 0.07
